Laboratory results: patent US10233157B2, “SIK inhibitor for use in a method of treating an inflammatory and/or immune disorder” (Dana-Farber Cancer Institute, Inc., priority 2012, dated 2019)

Columns and labels:
Type in all cases: cell-based, mouse
LKB1−/− macrophages = assay: Cytokine secretion in LKB1−/− macrophages
Source text: FIGS. 9A to 9I. Genetic evidence using LKB1-deficient macrophages and a drug-resistant mutant of SIK2 to establish that inhibition of SIKs induces IL-10 production. (FIG. 9A) Loss of CRTC3 phosphorylation in LKB1−/− MEFs. (FIG. 9B) Enhanced IL-10 production and reduced secretion of pro-inflammatory cytokines in LysM-Cre-LKB1flox/flox macrophages (n=3, mean±SD). (FIG. 9C) Sequence alignment of AMPK-related kinases. The ‘gatekeeper’ site is indicated using an asterisk. (FIG. 9D) […] curves of KIN112 against different SIK2 mutants. […]. (FIG. 9F) Induction of HA-SIK2 (WT and [T96Q]) expression in RAW264.7 macrophages. […]. RAW264.7 cells were induced to express HA-SIK2-WT or HA-SIK2[T96]. As a further control, cells transduced with the empty vector and which only express endogenous SIK isoforms were also used. […]. […]. IL-10^−/− mice on a C57BL/6 background were purchased from The Jackson Laboratory, Maine, USA. LKB1^flox/flox mice on a C57BL/6 background were a generous gift from Alan Ashworth and were crossed with LysM-Cre mice to delete LKB1 in macrophages. Mice were bred at the University of Dundee under specific pathogen-free conditions in accordance with European Union regulations. Water supply for IL-10^−/− mice was supplemented with antibiotics to prevent the development of colitis. Work was approved by local ethical review and was performed with a UK Home Office project license. […]

TBK1/IKKε−/− fibroblasts = assay: nurr77 mRNA in IL-1 stimulated TBK1/IKKε−/− embryonic fibroblasts; settings: fibroblasts not expressing the IKK-related kinases
Procedure: Bone marrow-derived macrophages were differentiated for 7 days in DMEM supplemented with 5 ng/ml recombinant M-CSF (R&D systems), 2 mM glutamine, 10% foetal calf serum (FCS), penicillin and streptomycin. RAW264.7 cells and immortalized mouse embryonic fibroblasts (MEFs) from TBK1/IKKε^+/−, TBK1/IKKε^−/−, LKB1^+/+ and LKB1^−/− mice were cultured in DMEM containing 10% FCS, 2 mM glutamine and penicillin and streptomycin, while THP-1 monocytes were grown in RPMI-1640 supplemented with 10% FCS and antibiotics. For the culture of primary human macrophages, PBMCs were isolated from human blood using Ficoll and the monocytes were purified using anti-CD14 magnetic beads (Miltenyi Biotec). Monocytes were differentiated into macrophages for 6 days in the presence of 100 ng/ml M-CSF.

CREB = assay: Immunoblotting of CREB phosphorylation in LPS-stimulated macrophages
Procedure: (§1) Bone-marrow derived macrophages were differentiated for 7 days in DMEM supplemented with 5 ng/ml recombinant M-CSF (R&D systems), 2 mM glutamine, 10% foetal calf serum, penicillin and streptomycin. […]
Cells were rinsed in ice-cold PBS and extracted in lysis buffer (50 mM Tris/HCl pH 7.4, 1 mM EDTA, 1 mM EGTA, 50 mM NaF, 5 mM sodium pyrophosphate, 10 mM sodium α-glycerol 1-phosphate, 1 mM dithiothreitol, 1 mM sodium orthovanadate, 0.27 M sucrose, 1% (v/v) Triton X-100, 1 μg/ml aprotinin, 1 μg/ml leupeptin and 1 mM phenylmethylsulphonyl fluoride). Cell extracts were clarified by centrifugation at 14000×g for 10 min at 4° C. and protein concentrations determined using the Bradford assay. To detect proteins in cell lysates, 20 μg of protein extract was separated by SDS-PAGE. After transfer to PVDF membranes, proteins were detected by immunoblotting and visualized by treating the blots with ECL (Amersham) followed by autoradiography. The antibody recognizing CREB phosphorylated at Ser133 was from Cell Signalling Technology and the one detecting α-tubulin was obtained from Sigma.

[1] = test system: TLR-stimulated macrophages; assay: qPCR of CREB-dependent gene mRNA in TLR-stimulated macrophages
Procedure: as §1
mRNA was extracted from macrophages using the RNeasy Micro Kit following the manufacturers' instructions (Qiagen). cDNA was generated from 1 μg of total RNA using the iScript cDNA synthesis kit and quantified by qPCR using the SsoFast EvaGreen Supermix on a CFX96 real time system (Bio-Rad Laboratories). The relative expression of each gene was calculated from Ct values using the Pfaffl method^30 and was normalized against the mRNA levels of 18S RNA. The following primers were used: IL-10-F, […]; IL-10-R, […]; c-Fos-F, […]; c-Fos-R, […]; nurr1-F, […]; nurr1-R, […]; nurr77-F, […]; nurr77-R, […]; 18S-F, […]; 18S-R, […]; IL-1ra-F, […]; IL-1ra-R, […]; SPHK1-F, […]; SPHK1-R, […]; LIGHT-F, […]; LIGHT-R, […]; ArgI-F, […]; ArgI-R, […]; IFN-F, […]; IFNγ-R, […].
[…]. Biochem J 434:93-104) using the indicated antibodies. RNA was extracted using the RNeasy Micro Kit (Qiagen). cDNA was generated using the iScript cDNA synthesis kit and quantified by qPCR using the SsoFast EvaGreen Supermix (Bio-Rad Laboratories). The relative expression of each gene was calculated from Ct values using the Pfaffl method (Pfaffl M W (2001) A new mathematical model for relative quantification in real-time RT-PCR. Nucleic Acids Res 29:e45) and was normalized against the mRNA levels of 18S or GAPDH RNA. Fold-induction for each gene was reported relative to untreated control cells, which was set to 1. The concentrations of TNFα, IL-6, IL-10, IL-12p40, and RANTES in culture supernatants were measured using the Bio-Plex Pro Assay system from Bio-Rad. Further details in supplementary information.
mRNA was extracted from cells using the RNeasy Micro Kit following the manufacturers' instructions (Qiagen). cDNA was generated from 1 μg of total RNA using the iScript cDNA synthesis kit and quantified by qPCR using the SsoFast EvaGreen Supermix on a CFX96 real time system (Bio-Rad Laboratories). The relative expression of each gene was calculated from Ct values using the Pfaffl method (5) and was normalized against the mRNA levels of 18S RNA or GAPDH. Results are reported relative to untreated control cells, which was set to 1. The following primers were used: […]

[2] = LPS-stimulated macrophages with MRT67307

| SMILES | IL-10, IL-12 and TNFα secretion in response to LPS (LKB1−/− macrophages) | transcription of CREB-dependent nurr77 gene (TBK1/IKKε−/− fibroblasts) | phosphorylation of CREB at Ser133 induced by LPS (CREB) | time at which IL-10 mRNA levels reach a maximum [1, 2] [h] | time at which IL-10 mRNA returns to near basal levels [1, 2] [h] | mRNA of CREB-dependent genes c-fos, nurr1 and nurr77 ([1]; TLR-stimulated macrophages) | IL-10 mRNA ([1]; TLR/LPS-stimulated macrophages) |
| --- | --- | --- | --- | --- | --- | --- | --- |
| COc1ccc(N(C(=O)Nc2c(C)cccc2C)c2cc(Nc3ccc(N4CCN(C)CC4)cc3)ncn2)c(OC)c1 [HG-9-91-01, 1-(2,4-dimethoxyphenyl)-3-(2,6-dimethylphenyl)-1-(6-((4-(4-methylpiperazin-1-yl)phenyl)amino)pyrimidin-4-yl)urea] | unaffected |  |  |  |  |  |  |
| O=C(NCCCNc1nc(Nc2cccc(CN3CCOCC3)c2)ncc1C1CC1)C1CCC1 [MRT67307] |  | could still enhance | little effect | 1 | 4 | increase | dramatically increased |
